{"source": "patent US20190376142A1", "about": "“METHOD TO DISTINGUISH TUMOR SUPRESSIVE FOXO ACTIVITY FROM OXIDATIVE STRESS” (KONINKLIJKE PHILIPS N.V., priority 2016, published 2019)", "key": {"[1]": {"test_system": "FOXO3 activity in EGFR-mutant HCC827 lung cancer cell line", "assay": "Computational FOXO model on drug-treated HCC827 cells (GSE51212)", "settings": "HCC827 treated with drug vs untreated (FOXO scored inactive); public dataset GSE51212", "protocol": "(§1) Public datasets from samples that were treated with drugs targeting growth factor pathways. A. GEO GSE51212. […] B. GEO GSE30516 dataset.\n(§2) Once the model has been calibrated, it could be used on microarray (Affymetrix HG-U133Plus2.0) data of new tumor samples by entering probeset measurements as observations in the bottom layer, and inferring backwards in the model the activity probability of the FOXO3 transcription factor. The model was frozen and applied to microarray data of cell line and tissue samples by entering probeset measurements as observations into the model, inferring backwards FOXO transcription factor activity score as the log-2 value of the FOXO transcription factor odds p/(1−p).\n(§3) Parameters enforcing relationships between the FOXO transcription complex and target genes were manually set to improve generalization behavior of the model across different tissue types (11). Parameters describing relationships between target genes and their respective probe sets were calibrated on a public data set of Human Umbilical Vein Endothelial Cells (HUVEC) carrying inducible constitutively active FOXO3.A3-ER, and a threshold for FOXO-activity was set (GSE16573) (20)."}, "[2]": {"test_system": "FOXO activity in BT20 (triple-negative breast cancer cell line)", "assay": "Computational FOXO model on Erlotinib-treated BT20 cells (GSE30516)", "settings": "BT20 treated with Erlotinib; public dataset GSE30516", "protocol": "as §1, §2, §3"}, "[3]": {"test_system": "FOXO activity in MCF7 (ER positive breast cancer cell line)", "assay": "Computational FOXO model on Erlotinib-treated MCF7 cells (GSE30516)", "settings": "MCF7 treated with Erlotinib; public dataset GSE30516", "protocol": "as §1, §2, §3"}, "[4]": {"test_system": "FOXO activity in MDA-MB-453 (HER2 positive breast cancer cell line)", "assay": "Computational FOXO model on Erlotinib-treated MDA-MB-453 cells (GSE30516)", "settings": "MDA-MB-453 treated with Erlotinib; public dataset GSE30516", "protocol": "as §1, §2, §3"}, "[5]": {"test_system": "FOXO activity in Human Umbilical Vein Endothelial Cells (HUVEC)", "assay": "Computational FOXO model on HUVEC with 4OHT-inducible FOXO3.A3-ER (GSE16573)", "assay_type": "cell-based", "excerpt": "A. The Bayesian network structure used as a basis for the modeling approach shown as a simplified model of the transcriptional program of a cellular signal transduction pathway, consisting of three types of nodes: transcription factor, target gene and microarray probe sets corresponding to target genes. B. Training of the computational FOXO3 model on a public GEO dataset GSE16573, consisting of Affymetrix microarray 2.0 Plus expression data from HUVEC containing a 4OHT-inducible FOXO3.A3-ER expression construct. Each bar represents a sample analysis result.\nThe probabilistic relations in the Bayesian network model were made quantitative using experimental data to enable quantitative reasoning on new experimental samples."}}}
{"smiles": "Cn1c(=O)n(-c2ccc(C(C)(C)C#N)cc2)c2c3cc(-c4cnc5ccccc5c4)ccc3ncc21", "note": "[BEZ235]", "values": [{"measurement": "FOXO3 activity scored by the FOXO model", "setting": "[1]", "value": "scored active"}]}
{"smiles": "C#Cc1cccc(Nc2ncnc3cc(OCCOC)c(OCCOC)cc23)c1", "note": "[Erlotinib]", "values": [{"measurement": "FOXO activity score", "setting": "[2]", "value": "increased"}, {"measurement": "FOXO activity score", "setting": "[3]", "value": "increased"}, {"measurement": "FOXO activity score", "setting": "[4]", "value": "increased"}]}
{"smiles": "CC/C(=C(\\c1ccc(O)cc1)c1ccc(OCCN(C)C)cc1)c1ccccc1", "note": "[4OHT]", "values": [{"measurement": "FOXO activity predicted by the Bayesian model", "setting": "[5]; HUVEC-FOXO3.A3-ER treated with 4OHT", "value": "highly active FOXO"}, {"measurement": "FOXO activity predicted by the Bayesian model", "setting": "[5]; HUVECs expressing FOXO3.A3-ER-H212R (reduced DNA binding) treated with 4OHT", "value": "low FOXO3 activity"}, {"measurement": "FOXO activity predicted by the Bayesian model", "setting": "[5]; HUVECs without construct, treated with 4OHT", "value": "low FOXO activity"}]}
